Measurements: patent US5739291A, “Glutamate receptor antibodies” (The Salk Institute For Biological Studies, priority 1995, dated 1998)
Where two headings read alike, the source gives them in different places.

Key:
[1] = tested on: glutamate receptor subtypes; format: cell-based, rat; conditions: 2-10 days after injection
[2] = target: GluR5-1 (Rattus norvegicus, UniProt P22756); format: cell-based
Text: (§1) In vitro synthesized GluR5-1 and GluR5-2 cRNAs were individually expressed in Xenopus oocytes.

[3] = target: GluR5-2 (Rattus norvegicus, UniProt P22756); format: cell-based
Chain of GluR5-2 (P22756 31-949): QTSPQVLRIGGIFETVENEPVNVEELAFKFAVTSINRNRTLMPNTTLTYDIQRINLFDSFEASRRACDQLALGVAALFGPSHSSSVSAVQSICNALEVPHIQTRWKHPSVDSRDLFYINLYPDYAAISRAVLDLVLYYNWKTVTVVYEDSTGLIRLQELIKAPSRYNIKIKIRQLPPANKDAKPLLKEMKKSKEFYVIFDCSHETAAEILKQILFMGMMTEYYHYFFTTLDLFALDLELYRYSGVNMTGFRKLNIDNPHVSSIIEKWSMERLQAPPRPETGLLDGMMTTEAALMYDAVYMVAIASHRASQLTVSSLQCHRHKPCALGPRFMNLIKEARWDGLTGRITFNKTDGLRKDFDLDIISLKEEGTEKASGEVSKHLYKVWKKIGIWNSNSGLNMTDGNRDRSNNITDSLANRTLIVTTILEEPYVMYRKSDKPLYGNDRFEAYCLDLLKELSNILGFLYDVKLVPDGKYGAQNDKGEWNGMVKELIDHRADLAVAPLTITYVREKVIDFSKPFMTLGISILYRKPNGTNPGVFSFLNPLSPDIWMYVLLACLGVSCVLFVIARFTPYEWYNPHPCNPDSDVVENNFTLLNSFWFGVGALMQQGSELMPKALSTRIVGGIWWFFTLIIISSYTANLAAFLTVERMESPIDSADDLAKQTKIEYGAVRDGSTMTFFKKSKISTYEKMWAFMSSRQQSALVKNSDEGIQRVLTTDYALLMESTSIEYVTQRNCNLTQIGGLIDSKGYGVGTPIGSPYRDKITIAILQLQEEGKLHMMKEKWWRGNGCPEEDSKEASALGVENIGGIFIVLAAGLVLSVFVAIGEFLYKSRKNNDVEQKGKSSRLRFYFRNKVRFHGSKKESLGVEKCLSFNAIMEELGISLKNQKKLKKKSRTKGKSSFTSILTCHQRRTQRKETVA
Text: as §1

[4] = target: T1, GluR1 (Rattus norvegicus, UniProt P19490); assay: Voltage-clamp recording in Xenopus oocytes injected with GluR1 in vitro RNA; format: cell-based; conditions: for agonist properties (in words) / inhibition of kainate-evoked depolarizations (in words): each at 1 mM
T1 construct: expressed in transfected cells; host or cells: Xenopus oocytes injected with GluR1 in vitro sense RNA
T1 sequence (P19490 19-907 S67T/A248R/S789T): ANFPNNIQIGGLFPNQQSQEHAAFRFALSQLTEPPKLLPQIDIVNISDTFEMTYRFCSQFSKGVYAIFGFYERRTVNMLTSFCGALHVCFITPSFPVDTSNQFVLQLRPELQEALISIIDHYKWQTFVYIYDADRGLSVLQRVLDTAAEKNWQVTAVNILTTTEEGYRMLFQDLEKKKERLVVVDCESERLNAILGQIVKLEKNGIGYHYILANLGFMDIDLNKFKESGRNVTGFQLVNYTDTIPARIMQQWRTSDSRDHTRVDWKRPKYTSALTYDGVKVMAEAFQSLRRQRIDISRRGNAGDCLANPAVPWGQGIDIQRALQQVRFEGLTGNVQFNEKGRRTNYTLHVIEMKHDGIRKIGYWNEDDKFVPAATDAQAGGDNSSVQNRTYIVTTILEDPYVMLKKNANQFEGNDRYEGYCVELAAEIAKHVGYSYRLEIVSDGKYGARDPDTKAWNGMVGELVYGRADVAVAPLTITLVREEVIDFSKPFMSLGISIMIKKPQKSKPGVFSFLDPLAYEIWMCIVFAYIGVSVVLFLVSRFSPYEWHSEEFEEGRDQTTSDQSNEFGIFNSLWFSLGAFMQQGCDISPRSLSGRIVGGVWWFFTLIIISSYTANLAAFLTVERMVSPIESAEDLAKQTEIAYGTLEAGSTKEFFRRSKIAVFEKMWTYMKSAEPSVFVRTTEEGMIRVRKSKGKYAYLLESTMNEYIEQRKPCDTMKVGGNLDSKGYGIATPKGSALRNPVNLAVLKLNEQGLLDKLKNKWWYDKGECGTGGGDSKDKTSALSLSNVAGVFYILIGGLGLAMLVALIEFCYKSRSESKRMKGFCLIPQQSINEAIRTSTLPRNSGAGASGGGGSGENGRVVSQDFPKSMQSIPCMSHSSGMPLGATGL
Text: Either a λZAP cDNA preparation, or a plasmid containing the cDNA to be tested, are cut downstream from the cDNA insert with a restriction enzyme. The post-restriction digest is digested with Proteinase K and then extracted with two phenol: chloroform (1:1) extractions. The resulting DNA fragments are then ethanol precipitated. The precipitated fragments are mixed with either T3 RNA polymerase (to make sense strand), or T7 RNA polymerase (to make anti-sense strand), plus rATP, rCTP, rGTP, rUTP, and RNase inhibitor. Simultaneously, the RNA transcripts are capped with a sodium diguanosine triphosphate [G(5')ppp(5')G] cap. The water used for the above procedures is treated with diethylpyrocarbonate to inactivate RNases.
The in vitro synthesized mRNA transcripts are injected into Xenopus oocytes. 50 nl of an RNA solution, 0.2-0.6 mg/ml, is injected into the stage V oocytes. The injected oocytes are incubated at 16° C. in Barth's medium for 2-7 days before they are analyzed for the presence of functional receptors.
Voltage recordings are made by penetrating the oocyte with a micro-electrode filled with 3M KCl and connected to the bridge circuit of an appropriate voltage clamp unit, e.g., the Dagan 8500 voltage clamp unit. Voltage recordings are preferably obtained with two electrodes, a voltage electrode filled with 3M KCl and a current electrode filled with 0.25M CsCl, 0.25M CsF and 50 mM EGTA (ethylene glycol tetraacetic acid).
Oocytes employed herein are obtained from ovarian tissue from anesthetized adult female Xenopus. The ovarian tissue is treated with collagenase, 2 mg/ml, for two hours and then the ovarian epithelium and follicular cells are dissected away.
The plasmid pGluR1 was subsequently rescued from bacteriophage λZAPII-GluR1.
3 days prior to the recording. The oocytes were voltageclamped at -70 mV,
applied by rapid superfusion, with 5 minute intervals between drugs. Peak
currents were recorded; each number represents the average of 3 recording
from 3 different oocytes, ± SEM.
(§2) The data in FIG. 3B represent the responses of oocytes to the indicated agonists measured 3 days after injection with GluR1 (2 ng) or GluR3 (2 ng) RNA or adult rat brain hippocampus poly(A)^+ RNA (~50 ng). All values are normalized to the response obtained with […] and are presented as the mean ± S.E.M. with n≥3 for all measurements.

[5] = target: GluR3 (Rattus norvegicus, UniProt P19492); format: cell-based
Chain of GluR3 (P19492 23-888): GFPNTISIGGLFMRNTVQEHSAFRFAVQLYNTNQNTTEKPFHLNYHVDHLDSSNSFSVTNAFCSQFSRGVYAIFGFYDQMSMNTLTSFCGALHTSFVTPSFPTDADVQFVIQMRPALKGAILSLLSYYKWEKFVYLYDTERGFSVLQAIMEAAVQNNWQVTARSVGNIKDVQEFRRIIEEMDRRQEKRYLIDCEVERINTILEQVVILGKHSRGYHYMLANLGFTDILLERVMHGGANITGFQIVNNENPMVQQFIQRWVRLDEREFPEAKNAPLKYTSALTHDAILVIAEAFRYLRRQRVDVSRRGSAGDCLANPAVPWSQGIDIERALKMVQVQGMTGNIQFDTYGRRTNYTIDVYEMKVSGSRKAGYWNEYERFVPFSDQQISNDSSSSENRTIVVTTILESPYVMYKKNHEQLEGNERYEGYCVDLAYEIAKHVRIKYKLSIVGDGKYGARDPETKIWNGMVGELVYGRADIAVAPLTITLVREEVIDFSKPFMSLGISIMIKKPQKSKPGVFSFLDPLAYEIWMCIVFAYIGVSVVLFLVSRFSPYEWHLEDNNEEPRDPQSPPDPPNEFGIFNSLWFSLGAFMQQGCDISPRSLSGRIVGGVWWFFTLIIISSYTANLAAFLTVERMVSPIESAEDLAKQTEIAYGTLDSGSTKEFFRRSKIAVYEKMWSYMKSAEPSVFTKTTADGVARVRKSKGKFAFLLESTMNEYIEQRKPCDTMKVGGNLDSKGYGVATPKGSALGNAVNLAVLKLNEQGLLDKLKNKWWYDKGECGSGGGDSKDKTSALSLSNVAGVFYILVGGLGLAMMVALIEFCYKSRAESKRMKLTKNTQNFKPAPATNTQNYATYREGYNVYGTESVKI
Protocol: Thus, oocytes were injected with in vitro synthesized RNA transcripts derived from individual cDNA clones.
as §2

[6] = target: T2, homomeric GluR6 receptor (Rattus norvegicus, UniProt P42260, I567V/Q621R/Y571C); assay: Homomeric GluR6 ion channel in Xenopus oocytes injected with in vitro transcribed RNA; format: cell-based; conditions: for responsiveness of homomeric ion channels: summary statement; for current at -70 mV: 10 μM kainate
T2 construct: A 4559 base pair cDNA encoding a protein of 884 amino acid residues was engineered from RC11 and RC27; expressed in transfected cells; host or cells: Xenopus oocytes injected with in vitro transcribed GluR6 RNA
T2 sequence (P42260 with tags, fused parts or gaps I567V/Y571C/Q621R): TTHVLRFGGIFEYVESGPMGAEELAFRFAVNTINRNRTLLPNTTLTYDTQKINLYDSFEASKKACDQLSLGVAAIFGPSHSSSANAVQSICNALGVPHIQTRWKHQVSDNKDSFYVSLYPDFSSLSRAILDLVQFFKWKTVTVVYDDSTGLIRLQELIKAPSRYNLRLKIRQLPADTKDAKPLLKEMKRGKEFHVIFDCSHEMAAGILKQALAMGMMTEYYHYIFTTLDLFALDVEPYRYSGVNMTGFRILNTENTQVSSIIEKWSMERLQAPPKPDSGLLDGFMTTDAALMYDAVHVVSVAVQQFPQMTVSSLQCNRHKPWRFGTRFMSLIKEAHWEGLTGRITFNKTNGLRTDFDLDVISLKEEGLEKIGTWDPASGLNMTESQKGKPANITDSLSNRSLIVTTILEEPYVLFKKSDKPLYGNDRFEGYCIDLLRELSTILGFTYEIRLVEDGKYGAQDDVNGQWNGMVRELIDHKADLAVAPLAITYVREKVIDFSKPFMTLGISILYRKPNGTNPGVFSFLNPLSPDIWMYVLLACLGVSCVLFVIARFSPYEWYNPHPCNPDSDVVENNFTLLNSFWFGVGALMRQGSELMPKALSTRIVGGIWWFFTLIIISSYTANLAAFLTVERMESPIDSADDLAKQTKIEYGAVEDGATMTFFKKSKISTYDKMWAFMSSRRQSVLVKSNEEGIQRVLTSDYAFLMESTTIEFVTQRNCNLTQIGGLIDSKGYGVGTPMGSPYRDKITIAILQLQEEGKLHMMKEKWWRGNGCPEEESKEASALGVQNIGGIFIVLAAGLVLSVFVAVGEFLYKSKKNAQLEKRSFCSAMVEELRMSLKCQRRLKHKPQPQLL

[7] = tested on: kainate receptor; format: cell-based, rat
Protocol: A directional cDNA library (λZAPII RTB1; complexity: 8×10^5 elements), consisting of 18 independent sublibraries of 44,000 clones each, was constructed from this poly(A)^+ RNA using the bacteriophage expression vector λZAPII. A pool of in vitro transcripts, comprised of transcripts made separately from all 18 amplified sublibraries, was injected into oocytes. […] Subsequently, pools of 44,000 clones (=the single sublibraries), 4,000, 400 and 40 clones were tested.

[8] = target: kainate receptors derived from forebrain mRNA; conditions: read-out: Ki for block of kainate responses; literature value (Verdoorn et al.); cited from earlier work
[9] = QUIS 10 μM, AMPA 50 μM, GLU 100 μM, NMDA 30 μM plus 10 μM glycine, APB 50 μM, -70 mV, 2 ng RNA, 3 days
[10] = oocytes held at -100 mV, before Con A, AMPA 100 μM

Chain of GluR5-1 (P22756 with tags, fused parts or gaps K282L/C354W/A355R/A477G/DEL870-898): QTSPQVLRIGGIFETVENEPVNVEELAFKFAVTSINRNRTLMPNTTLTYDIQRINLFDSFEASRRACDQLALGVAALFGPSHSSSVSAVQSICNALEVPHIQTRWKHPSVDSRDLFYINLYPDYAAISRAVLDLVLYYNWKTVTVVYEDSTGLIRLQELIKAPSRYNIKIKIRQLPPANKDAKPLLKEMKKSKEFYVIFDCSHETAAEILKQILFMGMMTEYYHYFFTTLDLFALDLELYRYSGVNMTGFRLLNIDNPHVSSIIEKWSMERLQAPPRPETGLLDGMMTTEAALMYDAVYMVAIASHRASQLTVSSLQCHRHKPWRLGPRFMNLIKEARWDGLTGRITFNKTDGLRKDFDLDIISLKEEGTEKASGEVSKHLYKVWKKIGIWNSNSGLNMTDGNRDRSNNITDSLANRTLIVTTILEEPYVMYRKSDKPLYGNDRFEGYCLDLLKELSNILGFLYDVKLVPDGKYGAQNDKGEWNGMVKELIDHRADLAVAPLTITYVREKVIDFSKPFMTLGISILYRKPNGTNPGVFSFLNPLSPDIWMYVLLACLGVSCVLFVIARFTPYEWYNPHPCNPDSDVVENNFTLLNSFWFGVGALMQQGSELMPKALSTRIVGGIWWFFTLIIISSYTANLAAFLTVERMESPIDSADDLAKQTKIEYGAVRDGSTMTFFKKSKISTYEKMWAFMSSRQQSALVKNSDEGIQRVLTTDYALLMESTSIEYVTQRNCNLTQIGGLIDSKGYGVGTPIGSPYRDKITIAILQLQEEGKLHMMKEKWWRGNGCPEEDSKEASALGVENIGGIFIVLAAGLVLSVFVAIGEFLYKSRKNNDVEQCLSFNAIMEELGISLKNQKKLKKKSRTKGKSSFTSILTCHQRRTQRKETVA

NC(CCP(=O)(O)O)C(=O)O (centres unmarked) [APB, 2-amino-4-phosphonobutyric acid]
response to selective agonists [1]: gave no response | membrane depolarizations elicited ([2]; AMPA 50 μM, quisqualate 10 μM, APB 100 μM, NMDA 100 μM with 10 μM glycine): did not elicit membrane depolarizations | membrane depolarizations elicited ([3]; KA 100 MM, AMPA 50 μM, quisqualate 10 μM, APB 100 μM, NMDA 100 μM with 10 μM glycine): did not elicit membrane depolarizations | response to agonist [4, 9]: No detectable responses | response to agonist [5, 9]: No detectable responses

CN[C@H](CC(=O)O)C(=O)O [NMDA, N-methyl-D-aspartic acid]
response to selective agonists [1]: elicited smooth responses with fast onsets | response of Con A treated oocytes [6]: did not respond | membrane depolarizations elicited [2]: did not elicit membrane depolarizations | membrane depolarizations elicited [3]: did not elicit membrane depolarizations | responses detected [7]: No responses | response to agonist [4]: No detectable responses | responses evoked by other glutamate receptor agonists [4]: evoked no responses | agonist properties (in words) [4]: did not show any agonist properties | inhibition of kainate-evoked depolarizations (in words) [4]: slightly inhibited the KA responses | response to agonist [5]: No detectable responses

Cc1onc(O)c1CC(N)C(=O)O (stereo not drawn) [AMPA, α-amino-3-hydroxy-5-methyl-isoxazole-4-propionic acid]
effect on kainate-evoked current [6]: nor did it antagonize a kainate-evoked current | response of Con A treated oocytes [6]: did not respond | effect of coapplication on kainate-evoked (1 μM) responses ([6]; AMPA 100 μM, Con A treated oocytes): had no effect | inward current evoked [6, 10]: did not evoke any detectable current | responsiveness of homomeric ion channels [6]: but not to AMPA

CN1CCCC1c1cccnc1 (centres unmarked) [nicotine]
responses evoked by unrelated neurotransmitter receptor agonists [4]: failed to evoke responses

N[C@H](CCC(=O)NCC(=O)O)C(=O)O [γ-DGG, D-glutamylglycine]
inhibition of kainate-evoked depolarizations (in words) [4]: inhibited kainate responses | Compound Alone (%): % of the response evoked by 30 μM kainate immediately before drug application ([4]; xenopus oocytes, 1000 µM): -0.1 ± 0.5% | Compound Plus Kainate (%): % of the response seen with 30 μM kainate alone ([4]; xenopus oocytes, 1000 µM): 30.8 ± 1.1%

N#Cc1cc2[nH]c(=O)c(=O)[nH]c2cc1[N+](=O)[O-] [CNQX, 6-nitro-7-cyano-quinoxaline-2,3-dione]
Ki [8]: 295 nM | block of agonist-evoked responses [6]: blocked both quisqualate and kainate-evoked responses

NC(CCCP(=O)(O)O)C(=O)O (centres unmarked) [APV, 2amino-5-phospho-novaleric acid]
agonist properties (in words) [4]: did not show any agonist properties | inhibition of kainate-evoked depolarizations (in words) [4]: slightly inhibited the KA responses | Compound Plus Kainate (%): % of the response seen with 30 μM kainate alone ([4]; test compounds 1 mM plus 30 μM kainate, -70 mV, peak currents, average of 3 oocytes ± SEM): 73.7 ± 3.2% | Compound Alone (%): % of the response evoked by 30 μM kainate immediately before drug application ([4]; test compounds 1 mM, kainate 30 μM, -70 mV, peak currents, average of 3 oocytes ± SEM): 3.1 ± 1.4%

CCOC(=O)CC[C@H](N)C(=O)OCC [GDEE, glutamate diethylester]
agonist properties (in words) [4]: displayed weak agonist properties | inhibition of kainate-evoked depolarizations (in words) [4]: did not block the response significantly | Compound Alone (%): % of the response evoked by 30 μM kainate immediately before drug application ([4]; xenopus oocytes, 1000 µM): 24.8 ± 5.7% | Compound Plus Kainate (%): % of the response seen with 30 μM kainate alone ([4]; xenopus oocytes, 1000 µM): 97.8 ± 6.6%

O=C(O)c1cc(=O)c2ccccc2[nH]1 [Kynurenic acid]
inhibition of kainate-evoked depolarizations (in words) [4]: most potent inhibitor | Compound Alone (%): % of the response evoked by 30 μM kainate immediately before drug application ([4]; xenopus oocytes, 1000 µM): 3.4 ± 0.2% | Compound Plus Kainate (%): % of the response seen with 30 μM kainate alone ([4]; xenopus oocytes, 1000 µM): 9.6 ± 1.3%

O=C(O)C1CN(CCCP(=O)(O)O)CCN1 (centres unmarked) [CPP]
agonist properties (in words) [4]: did not show any agonist properties | inhibition of kainate-evoked depolarizations (in words) [4]: slightly inhibited the KA responses | Compound Alone (%): % of the response evoked by 30 μM kainate immediately before drug application ([4]; xenopus oocytes, 1000 µM): 9.1 ± 0.7% | Compound Plus Kainate (%): % of the response seen with 30 μM kainate alone ([4]; xenopus oocytes, 1000 µM): 78.8 ± 0.9%

C=C(C)[C@H]1CN[C@H](C(=O)O)[C@H]1CC(=O)O [kainate, kainic acid]
current at -70 mV ([6]; Con A treated, modified Ringer solution (sodium methanesulfonate)): 330 nA | current at -70 mV ([6]; Ringer solution, after Con A treatment): 2.3 μa | current at -70 mV ([6]; Ringer solution, before Con A treatment): 30 nA | response of Con A treated oocytes ([6]; 100 μM aspartate, 100 μM NMDA with 3 μM glycine, 10-1000 μM AMPA): responded | time to full recovery from desensitization ([6]; 100 μM kainate for 30 seconds): approximately 15 minutes | inward current evoked [6, 10]: evoked inward currents that desensitized | responsiveness of homomeric ion channels [6]: responsive to KA | desensitization of responses ([4]; prolonged (up to 10 minutes) superfusion, 100 μM agonist): did not desensitize

NCCc1c[nH]c2ccc(O)cc12 [serotonin]
responses evoked by unrelated neurotransmitter receptor agonists ([4]; concentrations as high as 1 mM): failed to evoke responses

N[C@@H](Cn1oc(=O)[nH]c1=O)C(=O)O [quisqualate, quisqualic acid]
effect on kainate-evoked current [6]: attenuated a subsequent kainate evoked current | inward current evoked [6]: activated only small inward currents | membrane depolarizations elicited [2]: did not elicit membrane depolarizations | membrane depolarizations elicited [3]: did not elicit membrane depolarizations

O=C(O)[C@H]1CCCN[C@H]1C(=O)O (relative stereo) [PDA, 2,3cis-piperidine dicarboxylic acid]
inhibition of kainate-evoked depolarizations (in words) [4]: blocked the GluR1 response | Compound Alone (%): % of the response evoked by 30 μM kainate immediately before drug application ([4]; xenopus oocytes, 1000 µM): 2.5 ± 0.7% | Compound Plus Kainate (%): % of the response seen with 30 μM kainate alone ([4]; xenopus oocytes, 1000 µM): 31.3 ± 2.0%

NCC(=O)O [glycine]
potentiation of the KA response [4]: did not potentiate the KA response | responses evoked by unrelated neurotransmitter receptor agonists [4]: failed to evoke responses

CS(=O)(=O)O [methanesulfonate, sodium methanesulfonate]
reduction of kainate-evoked current ([6]; 95% of Cl- substituted by methanesulfonate): 8 fold

NCCCC(=O)O [γ-aminobutyric acid]
responses evoked by unrelated neurotransmitter receptor agonists ([4]; concentrations as high as 1 mM): failed to evoke responses

C/C(=C/C=C/[C@@H](C)C(=O)O)[C@H]1CN[C@H](C(=O)O)[C@H]1CC(=O)O [domoate, domoic acid]
response compared with kainate ([7]; 10 μM domoate vs 100 μM kainate): response similar to the one elicited by 100 μM kainate
